Measurements: the supplement of paper PMC10307832

Tests used:
Experiment in all cases: relative viability (nuclei count vs DMSO), 5 days (fraction); higher = more cells survive
BMX-IN-1 + Trametinib = compound: C=CC(=O)Nc1cc(-n2c(=O)ccc3cnc4ccc(-c5ccc(NS(C)(=O)=O)cc5)cc4c32)ccc1C [BMX-IN-1] + CC(=O)Nc1cccc(-n2c(=O)n(C3CC3)c(=O)c3c(Nc4ccc(I)cc4F)n(C)c(=O)c(C)c32)c1 [Trametinib] (partner 0.02 µM)
How it was run: (§1)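 Medians of duplicate plates are given as relative viability. That measure is the nuclei count in treated wells divided by the count in vehicle wells. Counts were taken on 4× images of lung cancer cell lines in 1536-well plates, 5 days after pin-tool dosing the day after seeding with one drug alone or a fixed anchor-drug dose plus five library-drug doses (not always all listed) in √10 steps.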

BMX-IN-1 + Lapatinib = compound: C=CC(=O)Nc1cc(-n2c(=O)ccc3cnc4ccc(-c5ccc(NS(C)(=O)=O)cc5)cc4c32)ccc1C [BMX-IN-1] + CS(=O)(=O)CCNCc1ccc(-c2ccc3ncnc(Nc4ccc(OCc5cccc(F)c5)c(Cl)c4)c3c2)o1 [Lapatinib] (partner 2 µM)
How it was run: as §1

Ibrutinib + Alpelisib = compound: C=CC(=O)N1CCC[C@@H](n2nc(-c3ccc(Oc4ccccc4)cc3)c3c(N)ncnc32)C1 [Ibrutinib] + Cc1nc(NC(=O)N2CCC[C@H]2C(N)=O)sc1-c1ccnc(C(C)(C)C(F)(F)F)c1 [Alpelisib] (partner 2 µM)
How it was run: as §1

PAC-1 = compound: C=CCc1cccc(/C=N/NC(=O)CN2CCN(Cc3ccccc3)CC2)c1O [PAC-1]
How it was run: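 After an overnight hold at 37 °C, lung cancer cell lines in 1536-well plates were pinned with five library-drug doses (not always all listed), each √10 from the next, on vehicle-anchored plates. The cells stayed 5 days without fresh medium, then a one-step fix, permeabilisation and Hoechst stain preceded 4× imaging and MetaXpress nuclear counts. A plate passed only with control CV under 25% and at least one doubling. Viability is the median, over plates, of treated-well nuclei relative to vehicle-well nuclei.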

Cell Line	relative viability (BMX-IN-1 + Trametinib; first compound 0.02 µM)	relative viability (BMX-IN-1 + Trametinib; first compound 0.2 µM)	relative viability (BMX-IN-1 + Trametinib; first compound 0.6325 µM)	relative viability (BMX-IN-1 + Trametinib; first compound 2 µM)	relative viability (BMX-IN-1 + Lapatinib; first compound 0.02 µM)	relative viability (BMX-IN-1 + Lapatinib; first compound 0.2 µM)	relative viability (BMX-IN-1 + Lapatinib; first compound 0.6325 µM)	relative viability (BMX-IN-1 + Lapatinib; first compound 2 µM)	relative viability (Ibrutinib + Alpelisib; first compound 0.01581 µM)	relative viability (Ibrutinib + Alpelisib; first compound 0.05 µM)	relative viability (Ibrutinib + Alpelisib; first compound 0.1581 µM)	relative viability (Ibrutinib + Alpelisib; first compound 0.5 µM)	relative viability (PAC-1; 0.02 µM)	relative viability (PAC-1; 0.06325 µM)	relative viability (PAC-1; 0.2 µM)	relative viability (PAC-1; 2 µM)	relative viability (Ibrutinib + Alpelisib; first compound 0.005 µM)
NCI-H1355	0.385	0.459	0.463	0.45	1.14	1.09	1.08	0.982	0.704	0.782	0.887	0.646	0.983	1.02	0.968	1.06	
LK-2	0.943	1.02	0.793	0.847	1.1	1.37	0.68	0.924	0.837	1.36	0.938	0.89	0.933	0.983	1	1.02	
NCI-H1650	0.576	0.539	0.682	0.611	0.666	0.941	0.88	0.77					0.916	0.916	0.856	0.81	
NCI-H838	0.605	0.518	0.562	0.568	1.3	1.16	1.2	1.04	1	1.14	1.01	0.987	0.96	0.989	0.9	0.983	0.836
EMC-BAC-2	0.827	0.906	0.96	1.04	0.985	0.997	0.991	0.887	0.697	0.75	0.741	0.547	0.998	1.02	1.09	0.97	0.728
SW 1573	0.657	0.719	0.624	0.507	1.31	1.29	1.24	0.701	0.807	0.844	0.749	0.811	0.965	1.03	1.01	1.15	0.632
CAL-12T	0.342	0.318	0.31	0.36	0.692	0.722	0.795	0.613	0.831	1.14	1.18	0.698	1.02	1.11	0.984	0.947	
NCI-H2009	0.254	0.251	0.239	0.29	0.661	1.04	1.1	0.893	1.12	1.16	1.15	1.16	0.978	1.03	0.94	0.99	1.24
HARA	0.907	0.449	0.492	0.654	0.997	0.842	1.01	0.69	0.763	0.681	0.974	0.332	0.98	1.08	0.905	1.03	0.903
HCC-827	0.558	0.537	0.475	0.518	0.189	0.203	0.193	0.206	0.819	0.901	0.992	0.278	1.08	1.04	1.07	1.03	0.952
EBC-1					0.243	0.181	0.206	0.168	0.856	0.79	0.936	0.895	1.04	0.932	0.949	1	0.852
NCI-H647	0.702	0.563	0.467	0.474	1.3	0.957	1.43	0.949	1.01	1.14	1.45	1.21	0.985	0.995	0.892	0.933	1.15
A549					1.04	1.47	1.17	1.02	0.681	0.634	0.854	0.761	0.994	0.962	0.943	0.96	0.624
NCI-H661	0.634	0.597	0.642	0.535	0.564	0.458	0.452	0.517	0.68	0.358	0.524	0.216	0.977	0.981	0.965	0.959	0.467
NCI-H1651	0.866	0.908	0.879	0.893	1	0.967	1.17	0.834	0.938	0.995	0.935	1.1	0.978	0.967	0.943	0.983	0.903
HCC-78	0.801	0.967	0.717	0.896	0.812	0.835	0.663	0.878	0.315	0.292	0.391	0.24	1.01	0.892	0.974	1.11	0.346
NCI-H2085	0.52	0.75	0.564	0.538	0.831	0.821	0.764	0.763	0.893	0.862	0.977	0.743	1.05	1.02	0.989	0.98	0.965
NCI-H2228	0.41	0.596	0.481	0.488	1.89	1.09	1.52	0.929	0.677	0.747	0.723	0.671	0.98	1.15	0.924	1.09	0.807
LU99A	0.515	0.548	0.548	0.572	1.15	1.04	0.981	0.913	0.449	0.492	0.499	0.496	0.908	0.977	0.892	0.954	0.419
NCI-H522	0.687	0.805	0.728	0.744									1.08	1.1	0.872	1.05	
LCLC-97TM1	0.213	0.27	0.204	0.176	0.862	1.24	1.41	0.816	0.3	0.335	0.269	0.255	0.897	1.16	0.807	0.937	0.241

Cell Line	relative viability (BMX-IN-1 + Trametinib; first compound 0.02 µM)	relative viability (BMX-IN-1 + Trametinib; first compound 0.2 µM)	relative viability (BMX-IN-1 + Trametinib; first compound 0.6325 µM)	relative viability (BMX-IN-1 + Trametinib; first compound 2 µM)	relative viability (BMX-IN-1 + Lapatinib; first compound 0.02 µM)	relative viability (BMX-IN-1 + Lapatinib; first compound 0.2 µM)	relative viability (BMX-IN-1 + Lapatinib; first compound 0.6325 µM)	relative viability (BMX-IN-1 + Lapatinib; first compound 2 µM)	relative viability (Ibrutinib + Alpelisib; first compound 0.01581 µM)	relative viability (Ibrutinib + Alpelisib; first compound 0.05 µM)	relative viability (Ibrutinib + Alpelisib; first compound 0.1581 µM)	relative viability (Ibrutinib + Alpelisib; first compound 0.5 µM)	relative viability (PAC-1; 0.02 µM)	relative viability (PAC-1; 0.06325 µM)	relative viability (PAC-1; 0.2 µM)	relative viability (PAC-1; 2 µM)	relative viability (Ibrutinib + Alpelisib; first compound 0.005 µM)
NCI-H2023	0.586	0.564	0.623	0.539	1.19	0.954	1.19	0.855	0.574	0.492	0.66	0.568	0.973	0.919	0.905	1.01	0.567
LC-2-ad	1.02	0.945	0.929	0.94	1.12	1.12	1.09	1.05	0.944	0.936	0.836	0.758	1.01	1.04	1.01	0.974	0.874
NCI-H1975	0.309	0.348	0.395	0.377	1.27	0.869	1.23	0.929	0.418	0.475	0.634	0.212	0.97	0.957	0.994	1.08	0.594
NCI-H1793	0.544	0.454	0.505	0.454	0.755	1.22	0.72	0.872	0.635	0.605	0.587	0.575	0.847	0.934	0.872	1.01	
Calu-6					1	1.44	1.33	1.06	0.993		1.06	0.93	0.98	1.01	0.964	1.01	1.02
HCC-366	0.36	0.352	0.376	0.361	1.53	1.65	1.07	1.12	0.496	0.372	0.414	0.466	0.997	0.979	1.02	1.03	0.459
NCI-H2347	0.295	0.291	0.322	0.292	1.01	1.06	0.991	0.944	1.1	0.933	1.01	1.12	1.01	1.02	0.979	1.05	1
NCI-H2405	0.688	0.642	0.659	0.591	1.15	1.04	1.09	1.05	0.713	0.83		0.706	1.04	1	1.01	1.09	0.706
HCC-44	1.11	1.08	1.14	1.03	1.07	1.28	1.22	1.11	0.658	0.874	0.87	0.724	0.99	1.05	0.997	0.981	0.864
NCI-H1563					0.837	0.86	0.903	0.824	0.883	0.882	1.09	0.946	0.953	1.03	1.04	0.94	1
LCLC-103H	0.753	0.758	0.736	0.683					0.86	1.02	0.992	0.949	1	0.975	1.02	1.01	0.897
IA-LM					0.925	0.902	0.994	0.867	0.732	0.682	0.658	1	1.09	1.05	0.89	1.03	0.826
NCI-H1299					1	0.986	1.06	0.962	1.01	1.03	1.06	1.06	1.03	0.979	1	1.01	1.08
NCI-H1648	0.435	0.585	0.469	0.495									0.795	1.07	0.931	0.991	
NCI-H1703					1.69	1.24	1.31	0.677	0.362	0.362	0.397	0.243	0.993	0.903	0.955	0.962	0.273
NCI-H2342	0.834	0.768	0.85	0.791									1.09	0.91	0.872	1.15	
NCI-H1623													0.966	0.891	0.95	0.926	
SW 900	1.12	0.831	0.816	0.807									0.766	1.02	0.815	0.792	
NCI-H441	0.451	0.53	0.613	0.548					0.54	0.868	0.871	0.711	1.03	1.09	0.997	1.04	0.908
ABC-1					1.46	1.23	1.16	1.28	0.813	1.05	1.17	0.983	0.992	0.952	0.975	0.887	0.922
ChaGo-K-1	0.735	0.986	0.891	0.91									1.05	1.01	1	0.929	
